# Several values for one entry are separate records, joined by “and”; a condition that tells them apart may be missing. Equal values may be shown once. Entries after “also recorded” stand apart in the source; their conditions may differ.
# Columns and labels:
# RSV A2 [1] = test: Immunofluorescence staining and microscopy of RSV F and N
# RSV A2 [2] = test: Quantification of infectious virus production (plaque assay); format: cell-based, Respiratory syncytial virus; details: Fig 7A; Rhosin 50 uM, EHT 1864 20 uM, ML 141 10 uM; replicate values
# Description: HEp-2 cells were seeded to six-well plates at a density of 1 × 10^6 cells per well and incubated overnight at 37 °C/5% CO2. The following morning, cells were infected with RSV A2 (MOI 1.0) and treated with drugs 2 h post-viral exposure. The supernatant, containing progeny virions, was collected 48 h p.i., snap frozen, and stored at −80 °C. Quantification of infectious virus particles was performed by a traditional plaque assay. HEp-2 cells were seeded to six-well plates at a density of 1.5 × 10^6 cells per well and grown to 90% confluency. Cells were incubated with serial dilutions of the collected supernatants for 90 min at 37 °C/5% CO2 under frequent agitation. The inoculant was then removed and replaced with 4 mL of 1:1 4% FBS DMEM-F12/1% agarose. Plates were incubated for 5 days at 37 °C/5% CO2. Cells were then fixed with 10% formalin for 30 min at room temperature. After fixation and removal of agarose from each well, the cells were stained with 0.05% neutral red and plaques were quantified under a dissecting microscope.
# RSV-GFP [3] = test: microbe, parasite or virus in culture; format: cell-based, Respiratory syncytial virus; details: human respiratory syncytial virus, HEp-2, read-out: RSV-GFP inhibition (%)
# Description: The following morning, cells were washed twice with serum-free EMEM and treated with RSV-GFP (MOI 0.5) in a minimal volume of serum-free media for 90 min under frequent agitation. Unbound virus was then removed and replaced with fresh serum-containing EMEM. All drug additions were performed 2 h post-viral exposure, unless otherwise stated.
# (§1) Automated quantification of infection rates from fluorescent images were performed in CellProfiler (v2.2.0)[86]. Major steps in the image analysis pipeline included: (1) background subtraction and smoothing, (2) segmentation of nuclei, (3) segmentation of GFP-fluorescent area, (4) object masking, and (5) measurement of nuclear number, size, and intensity. Infection rate was quantified from the ratio of nuclei within GFP-fluorescent area to the total number of nuclei (Fig. 1b). This method of analysis accounts for in vitro syncytium formation induced by RSV, whereby a single infected cell may arise from the fusion of multiple cells. Mean nuclear fluorescent intensity and size was quantified as a measure of cell viability.
# The MicroSource […] Collection (Discovery Systems Inc.) consisting of 2400 compounds was screened using the previously outlined RSV-GFP infection assay protocol. Robot-assisted addition of drugs was performed within 1 h of RSV-GFP infection and infection rates were assayed 48 h p.i. Drugs were provided as 10 mM stocks in DMSO and serial diluted to a final concentration of 10 µM, resulting in a final DMSO concentration of 0.1% v/v. […] Hits were selected based on the criteria that: (a) the tested drug caused a >50% reduction in infection rate and (b) was not overtly cytotoxic (<10% change in mean nuclear intensity relative to DMSO control). Z-factors were calculated on a per-plate basis to monitor assay quality.
# RSV-GFP [4] = test: RSV-GFP infection of HEp-2 cells, automated imaging, dose-response; format: cell-based, Respiratory syncytial virus; details: for EC50: HEp-2, 2 h; for inhibition at 0.5 µM: read-out: RSV-GFP inhibition (%), log Conc (uM) -0.30103; for RSV-GFP inhibition (%): 48 h p.i.; for inhibition at 0.25 µM: read-out: RSV-GFP inhibition (%), log Conc (uM) -0.60206; for inhibition at 0.1 µM: read-out: RSV-GFP inhibition (%), log Conc (uM) -1; for inhibition at 0.05 µM: read-out: RSV-GFP inhibition (%), log Conc (uM) -1.30103; for inhibition at 0.01 µM: read-out: RSV-GFP inhibition (%), log Conc (uM) -2; for inhibition at 0.75 µM: read-out: RSV-GFP inhibition (%), log Conc (uM) -0.12494
# Description: HEp-2 cells were seeded to black, flat, microclear-bottom 96-well plates (655096, Greiner Bio-One) at a density of 5000 cells per well and incubated at 37 °C/5% CO2 overnight. The following morning, cells were washed twice with serum-free EMEM and treated with RSV-GFP (MOI 0.5) in a minimal volume of serum-free media for 90 min under frequent agitation. Unbound virus was then removed and replaced with fresh serum-containing EMEM. All drug additions were performed 2 h post-viral exposure, unless otherwise stated. Nuclei were stained with Hoechst 33342 (H3570, Thermo Fisher Scientific) (at a final concentration of 1 µg/mL) 48 h p.i. and imaging was performed using the Cellomics ArrayScan VTI HCS Reader at ×10 magnification (SPARC BioCentre, The Hospital for Sick Children, Toronto, ON).
# as §1, with “viability. […]” for “viability.”
# [5] = human respiratory syncytial virus, HEp-2, RSV-GFP MOI 0.5, treated 2 h post-viral exposure
# [6] = human respiratory syncytial virus, HEp-2, 48 h, replicate values
# [7] = GGPP 10.0 µM in the presence of atorvastatin 3.5 µM
compound,measurement,setting,value
"CC1(O)CCOC(=O)C1 (racemic) [Mevalonolactone, DL-mevalonolactone]",effect of mevalonolactone co-treatment in statin-treated cells,RSV A2 [1]; mevalonolactone 1 mM with atorvastatin 3.5 µM or simvastatin 1.5 µM,restore viral protein intensity to DMSO (0.1% v/v) baseline
ML 141,Virus titre (log10 PFU/mL),RSV A2 [2],5 log10 PFU/mL and 5.079 log10 PFU/mL and 5.176 log10 PFU/mL and 5.204 log10 PFU/mL
"C[C@]12CC[C@@H]3c4ccc(O)cc4CC[C@H]3[C@@H]1CC[C@@H]2O [Estradiol, 17β-Estradiol]",inhibition at 10 µM,RSV-GFP [3],70.7%
same,EC50,RSV-GFP [4]; [5],1620 nM
same,inhibition at 0.5 µM,RSV-GFP [4]; [6],7.41%
"CC(C)=CCC/C(C)=C/CC/C(C)=C/CC/C(C)=C/COP(=O)(O)OP(=O)(O)O.N.N.N [GGPP, geranylgeranyl pyrophosphate ammonium salt]",restoration of F protein intensity,RSV A2 [1]; [7],33.4 ± 3.5%
same,restoration of N protein intensity,RSV A2 [1]; [7],50.4 ± 1.6%
CNc1nc(C)c(-c2nc(Nc3cccc(S(N)(=O)=O)c3)ncc2F)s1 [CDKI-73],effect on RSV-GFP infection rate,RSV-GFP [4]; CDKI-73 0.5 µM or 1.0 µM,did not reduce infection rate; also recorded: did not reduce RSV-GFP infection rates
same,RSV-GFP inhibition (%),"RSV-GFP [4]; CDKI-73 0.5 uM, replicate values",15.9529% and 3.2849% and 2.901% and 0.6729%
same,RSV-GFP inhibition (%),"RSV-GFP [4]; CDKI-73 1 uM, replicate values",5.404% and 7.553% and -1.2228% and 1.11%
C[C@H]1O[C@@H](O[C@H]2[C@@H](O)C[C@H](O[C@H]3[C@@H](O)C[C@H](O[C@H]4CC[C@@]5(C)[C@H](CC[C@@H]6[C@@H]5CC[C@]5(C)[C@@H](C7=CC(=O)OC7)CC[C@]65O)C4)O[C@@H]3C)O[C@@H]2C)C[C@H](O)[C@@H]1O [Digitoxin],inhibition at 10 µM,RSV-GFP [3],98.8%
same,EC50,RSV-GFP [4]; [5],11 nM
same,inhibition at 0.5 µM,RSV-GFP [4]; [6],99.9%
same,inhibition at 0.25 µM,RSV-GFP [4]; [6],98.6%
same,inhibition at […],"RSV-GFP [4]; human respiratory syncytial virus, HEp-2, 48 h, read-out: RSV-GFP inhibition (%), log Conc (uM) -0.75696, replicate values",99.8%
same,inhibition at 0.1 µM,RSV-GFP [4]; [6],78.3%
same,inhibition at 0.05 µM,RSV-GFP [4]; [6],73%
same,inhibition at 0.04 µM,"RSV-GFP [4]; human respiratory syncytial virus, HEp-2, 48 h, read-out: RSV-GFP inhibition (%), log Conc (uM) -1.39794, replicate values",78.7%
same,inhibition at 0.03 µM,"RSV-GFP [4]; human respiratory syncytial virus, HEp-2, 48 h, read-out: RSV-GFP inhibition (%), log Conc (uM) -1.52288, replicate values",82%
same,inhibition at 0.02 µM,"RSV-GFP [4]; human respiratory syncytial virus, HEp-2, 48 h, read-out: RSV-GFP inhibition (%), log Conc (uM) -1.69897, replicate values",68.5%
same,inhibition at 0.01 µM,RSV-GFP [4]; [6],55%
C[C@H]1O[C@@H](O[C@H]2[C@@H](O)C[C@H](O[C@H]3[C@@H](O)C[C@H](O[C@H]4CC[C@@]5(C)[C@H](CC[C@@H]6[C@@H]5C[C@@H](O)[C@]5(C)[C@@H](C7=CC(=O)OC7)CC[C@]65O)C4)O[C@@H]3C)O[C@@H]2C)C[C@H](O)[C@@H]1O [Digoxin],inhibition at 10 µM,RSV-GFP [3],99.1%
same,EC50,RSV-GFP [4]; [5],26 nM
same,inhibition at 0.75 µM,RSV-GFP [4]; [6],99.9%
same,inhibition at 0.5 µM,RSV-GFP [4]; [6],100%
same,inhibition at 0.25 µM,RSV-GFP [4]; [6],86.5%
same,inhibition at 0.1 µM,RSV-GFP [4]; [6],85.5%
same,inhibition at 0.05 µM,RSV-GFP [4]; [6],68.3%
same,inhibition at 0.01 µM,RSV-GFP [4]; [6],25.2%
same,inhibition at 0.0075 µM,"RSV-GFP [4]; human respiratory syncytial virus, HEp-2, 48 h, read-out: RSV-GFP inhibition (%), log Conc (uM) -2.12494, replicate values",18%
same,inhibition at 0.001 µM,"RSV-GFP [4]; human respiratory syncytial virus, HEp-2, 48 h, read-out: RSV-GFP inhibition (%), log Conc (uM) -3, replicate values",9.48%
"C#C[C@]1(O)CC[C@H]2[C@@H]3CCC4=CC(=O)CC[C@@H]4[C@H]3CC[C@@]21C [Norethindrone, 19-Norethindrone]",inhibition at 10 µM,RSV-GFP [3],75.2%
same,EC50,RSV-GFP [4]; [5],705 nM
same,inhibition at 0.8 µM,"RSV-GFP [4]; human respiratory syncytial virus, HEp-2, 48 h, read-out: RSV-GFP inhibition (%), log Conc (uM) -0.09691, replicate values",61.9%
same,inhibition at 0.6 µM,"RSV-GFP [4]; human respiratory syncytial virus, HEp-2, 48 h, read-out: RSV-GFP inhibition (%), log Conc (uM) -0.22185, replicate values",41.8%
same,inhibition at 0.5 µM,RSV-GFP [4]; [6],19.2%
O=c1cc(-c2ccccc2)oc2ccc(O)cc12 [6-Hydroxyflavone],inhibition at 10 µM,RSV-GFP [3],74.1%
same,EC50,RSV-GFP [4]; [5],705 nM
same,inhibition at 0.75 µM,RSV-GFP [4]; [6],56.1%
same,inhibition at 0.5 µM,RSV-GFP [4]; [6],36.6%
same,inhibition at 0.05 µM,RSV-GFP [4]; [6],11.4%
CC(C)[C@@H]1NC(=O)[C@H](C)OC(=O)[C@@H](C(C)C)NC(=O)[C@@H](C(C)C)OC(=O)[C@H](C(C)C)NC(=O)[C@H](C)OC(=O)[C@@H](C(C)C)NC(=O)[C@@H](C(C)C)OC(=O)[C@H](C(C)C)NC(=O)[C@H](C)OC(=O)[C@@H](C(C)C)NC(=O)[C@@H](C(C)C)OC1=O [Valinomycin],inhibition at 10 µM,RSV-GFP [3],88%
same,EC50,RSV-GFP [4]; human respiratory syncytial virus,39 nM
same,inhibition at 0.75 µM,RSV-GFP [4]; [6],74.6%
same,inhibition at 0.5 µM,RSV-GFP [4]; [6],71.6%
same,inhibition at 0.25 µM,RSV-GFP [4]; [6],78.6%
same,inhibition at 0.1 µM,RSV-GFP [4]; [6],76.7%
same,inhibition at 0.09 µM,"RSV-GFP [4]; human respiratory syncytial virus, HEp-2, 48 h, read-out: RSV-GFP inhibition (%), log Conc (uM) -1.04576, replicate values",77.4%
same,inhibition at 0.06 µM,"RSV-GFP [4]; human respiratory syncytial virus, HEp-2, 48 h, read-out: RSV-GFP inhibition (%), log Conc (uM) -1.22185, replicate values",71.2%
same,inhibition at 0.05 µM,RSV-GFP [4]; [6],77.4%
O=C(Nc1ccc([N+](=O)[O-])cc1Cl)c1cc(Cl)ccc1O [Niclosamide],inhibition at 10 µM,RSV-GFP [3],93.9%
same,EC50,RSV-GFP [4]; [5],443 nM
same,inhibition at 0.75 µM,RSV-GFP [4]; [6],73.9%
same,inhibition at 0.55 µM,"RSV-GFP [4]; human respiratory syncytial virus, HEp-2, 48 h, read-out: RSV-GFP inhibition (%), log Conc (uM) -0.25964, replicate values",59.2%
same,inhibition at 0.5 µM,RSV-GFP [4]; [6],63.8%
same,inhibition at 0.45 µM,"RSV-GFP [4]; human respiratory syncytial virus, HEp-2, 48 h, read-out: RSV-GFP inhibition (%), log Conc (uM) -0.34679, replicate values",30.5%
same,inhibition at 0.4 µM,"RSV-GFP [4]; human respiratory syncytial virus, HEp-2, 48 h, read-out: RSV-GFP inhibition (%), log Conc (uM) -0.39794, replicate values",21.3%
same,inhibition at 0.35 µM,"RSV-GFP [4]; human respiratory syncytial virus, HEp-2, 48 h, read-out: RSV-GFP inhibition (%), log Conc (uM) -0.45593, replicate values",18.9%
same,inhibition at 0.3 µM,"RSV-GFP [4]; human respiratory syncytial virus, HEp-2, 48 h, read-out: RSV-GFP inhibition (%), log Conc (uM) -0.52288, replicate values",4.57%
same,inhibition at 0.2 µM,"RSV-GFP [4]; human respiratory syncytial virus, HEp-2, 48 h, read-out: RSV-GFP inhibition (%), log Conc (uM) -0.69897, replicate values",1.85%

# Reference: article PMC8556396, “Statin-mediated disruption of Rho GTPase prenylation and activity inhibits respiratory syncytial virus infection” (Communications Biology, 2021)
